Like-named read-outs stand apart in the source and are kept apart here.
How the values were obtained:
[1] = molecular target: T1, serotonin receptor 5-HT1A (Homo sapiens, UniProt P08908); experiment: NIH-PDSP binding assay, 5-HT1A (3H-8-OH-DPAT); conditions: for mean % inhibition 5-HT1A: Table 4, N=4 determinations, significant inhibition >50%, negative = stimulation of binding
T1 sequence (P08908 1-422): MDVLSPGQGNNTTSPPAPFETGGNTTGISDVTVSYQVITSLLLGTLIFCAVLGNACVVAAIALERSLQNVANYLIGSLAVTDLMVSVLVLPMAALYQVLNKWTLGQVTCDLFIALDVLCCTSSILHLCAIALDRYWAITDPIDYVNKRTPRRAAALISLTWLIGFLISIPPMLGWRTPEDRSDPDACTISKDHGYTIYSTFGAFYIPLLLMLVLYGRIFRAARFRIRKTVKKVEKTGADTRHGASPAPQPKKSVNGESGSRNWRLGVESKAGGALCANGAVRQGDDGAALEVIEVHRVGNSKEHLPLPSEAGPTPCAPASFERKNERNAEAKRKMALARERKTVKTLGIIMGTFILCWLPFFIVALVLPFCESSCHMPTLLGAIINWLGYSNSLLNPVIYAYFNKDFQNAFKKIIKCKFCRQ
From the text: (§1) Biological Evaluation of selected compounds was done through the National Institutes of Health Psychoactive Drug Screening Program (NIH-PDSP). Biological evaluation of the synthesized molecules consisted of: (a) Neurotransmitter uptake assays for the human serotonin transporter (SERT), (b) Binding assays for the serotonin receptor 5-HT1A, (c) Binding assays for the serotonin receptor 5-HT2A, and (d) Comparison of the biological data obtained for the synthesized molecules with that of currently used psychotherapeutics.
(§2) All binding assays were carried out with an incubation time of 60 minutes at room temperature. All binding assays were performed in a similar manner, although the buffers used differ from assay to assay.
(§3) Table 2 below gives the (1) radioligand; (2) assay buffer; (3) unlabelled reference ligand; and (4) references to the commonly-known procedures which were used.
(§4) The assay buffer A was made up of 50 mM Tris-Cl, 0.1 mM EDTA, and 10 mM MgCl2, at a pH of 7.4. To perform the assay, a 96-well plate was set up as follows:
(§5) For the 3H-ligands 1-2 nM final concentration of radioligand was used. For 125I-radioligands, 0.05-0.1 nM final concentration was used. The following components were pipetted in the following order: binding buffer, radioligand, cold unknown ligand, cold reference ligand, and membranes. The wells were incubated at room temperature for 60 minutes. At the end of the incubation, the samples were harvested onto pre-soaked (0.3% polyethyleneimine) GF/C filters using a 96-well harvester. They were then washed with 3 quick washes using ice-cold harvest buffer. The filters were removed and air dried overnight. Samples were counted in a 96-well counter using 100 μl of scintillant/well. The Ki value of the reference compound was calculated using the LIGAND Program (Munson and Rodbard, 1980). The percent inhibition was calculated using the following formula: […]

[2] = molecular target: human serotonin transporter (SERT) (Homo sapiens, UniProt P31645); experiment: NIH-PDSP transporter binding assay, SERT (3H-Citalopram); conditions: for mean % inhibition SERT: Table 4, N=4 determinations, significant inhibition >50%, negative = stimulation of binding; for affinity for SERT: in words, compounds 1b through 7b of Tables 4 and 5
human serotonin transporter (SERT), sequence (P31645 whole entry): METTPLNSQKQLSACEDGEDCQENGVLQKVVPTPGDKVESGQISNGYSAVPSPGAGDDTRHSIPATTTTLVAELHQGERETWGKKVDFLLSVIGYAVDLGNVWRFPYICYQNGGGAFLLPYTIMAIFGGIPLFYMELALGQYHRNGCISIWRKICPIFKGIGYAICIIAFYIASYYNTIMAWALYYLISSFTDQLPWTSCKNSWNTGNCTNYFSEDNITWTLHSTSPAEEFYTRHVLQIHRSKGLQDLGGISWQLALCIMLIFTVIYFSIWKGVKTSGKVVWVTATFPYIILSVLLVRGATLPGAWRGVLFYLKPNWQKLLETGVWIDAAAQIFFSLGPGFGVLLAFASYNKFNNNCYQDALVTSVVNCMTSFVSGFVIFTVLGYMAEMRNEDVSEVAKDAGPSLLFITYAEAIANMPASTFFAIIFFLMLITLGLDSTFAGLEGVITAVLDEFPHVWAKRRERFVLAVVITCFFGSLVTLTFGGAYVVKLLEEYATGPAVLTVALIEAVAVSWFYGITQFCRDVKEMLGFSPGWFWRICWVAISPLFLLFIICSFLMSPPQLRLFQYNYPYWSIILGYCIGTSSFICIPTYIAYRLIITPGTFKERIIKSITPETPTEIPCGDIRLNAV
From the text: as §1, §2
The assay buffer H contained 50 mM Tris-HCl, […], and 5 mM KCl, at a pH of 7.4. For the peptide receptor binding assay, filters were pre-soaked for 7 days in 0.3% PEI. To perform the assay, a 96-well plate was set up as follows:
as §5

[3] = molecular target: serotonin receptor 5-HT2A (Homo sapiens, UniProt P28223); experiment: NIH-PDSP binding assay, 5-HT2A (3H-ketanserin); conditions: for mean % inhibition 5-HT2A: Table 4, N=4 determinations, significant inhibition >50%, negative = stimulation of binding
serotonin receptor 5-HT2A, sequence (P28223 whole entry): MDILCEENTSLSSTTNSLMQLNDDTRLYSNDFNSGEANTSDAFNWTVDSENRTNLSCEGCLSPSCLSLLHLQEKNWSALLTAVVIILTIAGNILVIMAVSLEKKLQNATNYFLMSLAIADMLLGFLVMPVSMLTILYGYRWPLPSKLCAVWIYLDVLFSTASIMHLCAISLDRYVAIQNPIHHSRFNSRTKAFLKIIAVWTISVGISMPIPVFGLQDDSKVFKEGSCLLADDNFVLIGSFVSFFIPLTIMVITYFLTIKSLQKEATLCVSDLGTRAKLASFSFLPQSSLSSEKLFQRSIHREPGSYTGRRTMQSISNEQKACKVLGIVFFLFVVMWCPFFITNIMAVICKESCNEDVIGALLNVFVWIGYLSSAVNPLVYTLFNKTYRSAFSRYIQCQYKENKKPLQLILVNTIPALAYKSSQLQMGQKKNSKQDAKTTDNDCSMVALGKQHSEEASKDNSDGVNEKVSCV
From the text: as §1, §2, §3, §4, §5

[4] = tested on: 5HT1A, 5HT2A, SERT; experiment: Preliminary Analysis of Biological Data (NIH-PDSP binding profile); conditions: in words; compounds 1b through 7b of Tables 4 and 5
From the text: as §1
Ten (10) of the sixteen (16) compounds synthesized were biologically evaluated. Compounds 10b, 11b and 12b were previously evaluated for their serotonin uptake ability as described in Example 5. For screening purposes, compounds 1b through 7b were analyzed for their affinity towards the serotonin 5-HT1A receptor as well as their affinity towards the 5-HT2A receptor and the SERT. Data in […] represent mean % inhibition (N=4 determinations) for compound tested at receptor subtypes. Significant inhibition is considered >50%. In cases where negative inhibition (−) is seen, this represents a stimulation of binding. Occasionally, compounds at high concentrations will non-specifically increase binding. Ki values were determined only for compounds with % inhibition>50%.

[5] = molecular target: SERT (Homo sapiens, UniProt P31645); conditions: reference compounds, Orjales, cited from earlier work
SERT, sequence (P31645 whole entry, species assumed): as the sequence (P31645 whole entry) above

[6] = molecular target: 5-HT2A (Homo sapiens, UniProt P28223); conditions: cited from earlier work
5-HT2A, sequence (P28223 whole entry, species assumed): as the sequence (P28223 whole entry) above

[7] = Table 7, Homologues Type I (Aminoethane Derivatives), — = No significant inhibition
[8] = Table 7, Homologues Type I (Aminoethane Derivatives)
[9] = Table 8, Homologues Type II (Aminopropane Derivatives)
[10] = Table 8, Homologues Type II (Aminopropane Derivatives), — = No significant inhibition
[11] = Table 5, determined only for % inhibition >50%

SMILES: O=C(CCCN1CCN(CC(Oc2ccc(C(F)(F)F)cc2)c2ccccc2)CC1)c1ccc(F)cc1 (stereo not shown) [Compound 15b]
- Ki [1, 7]: 2730 nM
- Ki [2, 8]: 1380 nM
- Ki [3, 7]: 157 nM

SMILES: O=C(c1ccc(F)cc1)C1CCN(CCC(Oc2ccc(F)cc2)c2ccccc2)CC1 (stereo not shown) [Compound 28b]
- Ki [1, 9]: 234 nM
- Ki [2, 9]: 6480 nM
- Ki [3, 10]: 69.6 nM

SMILES: COc1ccccc1N1CCN(CCC(Oc2ccc(C(F)(F)F)cc2)c2ccccc2)CC1 (stereo not shown) [Compound 23b]
- Ki [1, 9]: 42.1 nM
- Ki [2, 9]: 2200 nM
- Ki [3, 10]: 1420 nM

SMILES: Fc1ccc(OC(CCN2CCN(c3ccccc3)CC2)c2ccccc2)cc1 (stereo not shown) [Compound 16b]
- mean % inhibition 5-HT1A [1]: 100.0%
- Ki [1, 9]: 9 nM
- mean % inhibition SERT [2]: 62.0%
- Ki [2, 9]: 1130 nM
- mean % inhibition 5-HT2A [3]: 96.0%
- Ki [3, 10]: 76 nM

SMILES: Fc1ccc2c(C3CCN(CCC(Oc4ccc(C(F)(F)F)cc4)c4ccccc4)CC3)noc2c1 (stereo not shown) [Compound 31b]
- Ki [1, 9]: 420 nM
- Ki [2, 9]: 718 nM
- Ki [3, 10]: 23.2 nM

SMILES: O=C(CCCN1CCN(CCC(Oc2ccc(C(F)(F)F)cc2)c2ccccc2)CC1)c1ccc(F)cc1 (stereo not shown) [Compound 33b]
- Ki [1, 9]: 5010 nM
- Ki [2, 9]: 725 nM
- Ki [3, 10]: 406 nM

SMILES: FC(F)(F)c1ccc(OC(CCN2CCN(c3cccc(C(F)(F)F)c3)CC2)c2ccccc2)cc1 (stereo not shown) [Compound 21b]
- Ki [1, 9]: 193 nM
- Ki [2, 9]: 1330 nM

SMILES: CN1CCN(CCC(Oc2ccc(C(F)(F)F)cc2)c2ccccc2)CC1 (stereo not shown) [Compound 27b]
- Ki [1, 9]: 9560 nM
- Ki [2, 9]: 7010 nM
- Ki [3, 10]: 1740 nM

SMILES: Fc1ccc2c(C3CCN(CC(Oc4ccc(C(F)(F)F)cc4)c4ccccc4)CC3)noc2c1 (stereo not shown) [Compound 13b]
- Ki [1, 7]: 1970 nM
- Ki [2, 8]: 1650 nM
- Ki [3, 7]: > 10000 nM

SMILES: Fc1ccc(OC(CN2CCN(c3ccccc3)CC2)c2ccccc2)cc1 (stereo not shown) [Compound 1]
- mean % inhibition 5-HT1A [1]: 98.0%
- Ki [1, 11]: 258 nM
- mean % inhibition SERT [2]: 12.0%
- melting point: 80 to 82 °C
- mean % inhibition 5-HT2A [3]: 61.0%
- Ki [3, 11]: 3490 nM

SMILES: Fc1ccc(OC(CCN2CCN(c3cccc(C(F)(F)F)c3)CC2)c2ccccc2)cc1 (stereo not shown) [Compound 20b]
- Ki [1, 9]: 20 nM
- Ki [2, 9]: 330 nM
- Ki [3, 10]: 747 nM

SMILES: O=C(c1ccc(F)cc1)C1CCN(CCC(Oc2ccc(C(F)(F)F)cc2)c2ccccc2)CC1 (stereo not shown) [Compound 29b]
- Ki [1, 9]: 304 nM
- Ki [2, 9]: 1240 nM
- Ki [3, 10]: 73.7 nM

SMILES: FC(F)(F)c1ccc(OC(CN2CCN(c3cccc(Cl)c3)CC2)c2ccccc2)cc1 (stereo not shown) [Compound 3]
- mean % inhibition 5-HT1A [1]: 71.0%
- Ki [1, 11]: 712 nM
- mean % inhibition SERT [2]: 22.0%
- mean % inhibition 5-HT2A [3]: 17.0%

SMILES: FC(F)(F)c1ccc(OC(CN2CCN(c3cccc(C(F)(F)F)c3)CC2)c2ccccc2)cc1 (stereo not shown) [Compound 4b]
- Ki [1, 7]: 1460 nM
- Ki [2, 8]: 4510 nM

SMILES: Fc1ccc(OC(CCN2CCC(c3noc4cc(F)ccc34)CC2)c2ccccc2)cc1 (stereo not shown) [Compound 30b]
- Ki [1, 9]: 8.6 nM
- Ki [2, 9]: 1690 nM
- Ki [3, 10]: 398 nM

SMILES: COc1ccccc1N1CCN(CC(Oc2ccc(C(F)(F)F)cc2)c2ccccc2)CC1 (stereo not shown) [Compound 5b]
- Ki [1, 7]: 22 nM
- Ki [2, 8]: ≥ 10000 nM
- Ki [3, 7]: > 10000 nM

SMILES: CN1CCN(CC(Oc2ccc(C(F)(F)F)cc2)c2ccccc2)CC1 (stereo not shown) [Compound 9b]
- Ki [2, 8]: 3660 nM
- Ki [3, 7]: 405 nM

SMILES: Fc1ccc(OC(CN2CCN(c3ccccc3)CC2)c2ccccc2)cc1 (stereo not shown) [Compound 1b]
- Ki [1, 7]: 99 nM
- Ki [2, 8]: > 10000 nM
- affinity for SERT [2]: low affinity
- dual activity towards the 5-HT2A receptor and the SERT [4]: desired dual activity towards the 5-HT2A receptor and the SERT, although low
- Ki [3, 7]: 1120 nM

SMILES: COc1ccccc1N1CCN(CCC(Oc2ccc(F)cc2)c2ccccc2)CC1 (stereo not shown) [Compound 22b]
- Ki [1, 9]: 4 nM
- Ki [2, 9]: 2440 nM
- Ki [3, 10]: 761 nM

SMILES: FC(F)(F)c1ccc(OC(CCN2CCN(c3ncccn3)CC2)c2ccccc2)cc1 (stereo not shown) [Compound 25b]
- Ki [1, 9]: 434 nM
- Ki [2, 9]: 6820 nM
- Ki [3, 10]: 1790 nM

SMILES: FC(F)(F)c1ccc(OC(CN2CCN(c3ccccc3)CC2)c2ccccc2)cc1 (stereo not shown) [Compound 2b]
- Ki [1, 7]: 392 nM
- Ki [2, 8]: > 10000 nM

SMILES: FC(F)(F)c1ccc(OC(CCN2CCN(c3ccccc3)CC2)c2ccccc2)cc1 (single isomer, unassigned) [Compound 17b]
- Ki [1, 9]: 315 nM
- Ki [2, 9]: 761 nM
- Ki [3, 10]: 605 nM

SMILES: FC(F)(F)c1ccc(OC(CN2CCN(c3cccc(Cl)c3)CC2)c2ccccc2)cc1 (stereo not shown) [Compound 3b]
- Ki [1, 7]: 649 nM
- Ki [2, 8]: 4930 nM

SMILES: O=C(CCCN1CCN(CCC(Oc2ccc(F)cc2)c2ccccc2)CC1)c1ccc(F)cc1 (stereo not shown) [Compound 32b]
- Ki [1, 9]: 2640 nM
- Ki [2, 9]: 1350 nM
- Ki [3, 10]: 420 nM

SMILES: CCCN(CCC)C1CCc2cccc(O)c2C1 (stereo not shown) [Compound 8-OH-DPAT]
- Ki ([5]; Table 5, et al. 2003): > 1000 nM
- Ki ([5]; Table 7, et. al., 2003): > 1000 nM
- Ki ([5]; Table 8, et. al., 2003): > 1000 nM
- Ki [6]: > 1000 nM

SMILES: FC(F)(F)c1ccc(OC(CCN2CCN(c3ccccc3)CC2)c2ccccc2)cc1 (stereo not shown) [Compound 2b]
- mean % inhibition 5-HT1A [1]: 91.0%
- Ki [1, 11]: 716 nM
- mean % inhibition SERT [2]: 67.0%
- Ki [2, 11]: 1870 nM
- affinity for SERT [2]: low affinity
- dual activity towards the 5-HT2A receptor and the SERT [4]: desired dual activity towards the 5-HT2A receptor and the SERT, although low
- mean % inhibition 5-HT2A [3]: 81.0%
- Ki [3, 11]: 195 nM

SMILES: Fc1ccc(OC(CCN2CCN(c3ncccn3)CC2)c2ccccc2)cc1 (stereo not shown) [Compound 24b]
- Ki [1, 9]: 803 nM
- Ki [2, 9]: ≥ 10000 nM
- Ki [3, 10]: 853 nM

SMILES: FC(F)(F)c1ccc(OC(CCN2CCN(c3cccc(Cl)c3)CC2)c2ccccc2)cc1 (stereo not shown) [Compound 19b]
- Ki [1, 9]: 311 nM
- Ki [2, 9]: 357 nM
- Ki [3, 10]: 1340 nM

SMILES: CN1CCN(CCC(Oc2ccc(F)cc2)c2ccccc2)CC1 (stereo not shown) [Compound 26b]
- Ki [1, 9]: > 10000 nM
- Ki [2, 9]: 2900 nM
- Ki [3, 10]: 1330 nM

SMILES: O=C(CCCN1CCN(CC(Oc2ccc(F)cc2)c2ccccc2)CC1)c1ccc(F)cc1 (stereo not shown) [Compound 14b]
- Ki [1, 7]: 1180 nM
- Ki [2, 8]: 1120 nM
- Ki [3, 7]: ≥ 10000 nM

SMILES: Fc1ccc(OC(CCN2CCN(c3cccc(Cl)c3)CC2)c2ccccc2)cc1 (stereo not shown) [Compound 18b]
- Ki [1, 9]: 11 nM
- Ki [2, 9]: 289 nM
- Ki [3, 10]: 94 nM

— patent publication US20120016124A1, “SEROTONIN REUPTAKE INHIBITORS” (Baylor University, priority 2007, published 2012)
